Common to all, as to assay: SPR (Biacore S200)
Holding throughout (type): binding

Assay [1] has as its target T1, recombinant mouse TLR8 (Mus musculus, UniProt P58682).
T1 construct: recombinant from Escherichia coli supernatant
T1 sequence (P58682 24-1032): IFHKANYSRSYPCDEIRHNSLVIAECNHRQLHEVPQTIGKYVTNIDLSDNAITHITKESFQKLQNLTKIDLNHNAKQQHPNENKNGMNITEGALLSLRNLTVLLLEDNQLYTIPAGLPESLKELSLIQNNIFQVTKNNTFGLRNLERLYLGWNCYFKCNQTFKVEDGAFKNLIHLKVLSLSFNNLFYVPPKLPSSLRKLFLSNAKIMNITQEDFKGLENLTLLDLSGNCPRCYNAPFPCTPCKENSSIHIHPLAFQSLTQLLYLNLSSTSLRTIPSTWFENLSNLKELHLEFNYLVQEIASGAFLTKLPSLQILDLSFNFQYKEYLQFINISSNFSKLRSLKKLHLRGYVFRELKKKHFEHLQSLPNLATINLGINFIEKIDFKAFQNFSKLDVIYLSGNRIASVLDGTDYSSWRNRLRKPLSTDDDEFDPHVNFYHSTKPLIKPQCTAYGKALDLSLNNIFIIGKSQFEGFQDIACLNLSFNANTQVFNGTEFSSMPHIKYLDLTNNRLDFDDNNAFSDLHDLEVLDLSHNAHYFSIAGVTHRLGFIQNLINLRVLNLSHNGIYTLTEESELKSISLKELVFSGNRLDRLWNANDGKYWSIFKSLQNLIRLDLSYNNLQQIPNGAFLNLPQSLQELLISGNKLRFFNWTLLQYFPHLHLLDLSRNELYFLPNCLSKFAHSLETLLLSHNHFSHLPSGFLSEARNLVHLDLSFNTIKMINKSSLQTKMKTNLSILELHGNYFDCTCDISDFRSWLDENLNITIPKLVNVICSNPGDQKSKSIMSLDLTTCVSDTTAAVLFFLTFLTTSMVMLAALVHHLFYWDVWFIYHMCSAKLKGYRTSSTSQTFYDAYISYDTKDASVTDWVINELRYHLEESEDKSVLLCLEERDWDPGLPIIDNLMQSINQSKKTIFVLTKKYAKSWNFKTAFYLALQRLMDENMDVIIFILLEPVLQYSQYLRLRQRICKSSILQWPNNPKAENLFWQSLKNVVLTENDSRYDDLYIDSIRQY
The following applies: read-out: KD8.

The target of the next assay is T2, recombinant mouse TLR7 (Mus musculus, UniProt P58681).
T2 construct: recombinant from Escherichia coli supernatant
T2 sequence (P58681 27-1050): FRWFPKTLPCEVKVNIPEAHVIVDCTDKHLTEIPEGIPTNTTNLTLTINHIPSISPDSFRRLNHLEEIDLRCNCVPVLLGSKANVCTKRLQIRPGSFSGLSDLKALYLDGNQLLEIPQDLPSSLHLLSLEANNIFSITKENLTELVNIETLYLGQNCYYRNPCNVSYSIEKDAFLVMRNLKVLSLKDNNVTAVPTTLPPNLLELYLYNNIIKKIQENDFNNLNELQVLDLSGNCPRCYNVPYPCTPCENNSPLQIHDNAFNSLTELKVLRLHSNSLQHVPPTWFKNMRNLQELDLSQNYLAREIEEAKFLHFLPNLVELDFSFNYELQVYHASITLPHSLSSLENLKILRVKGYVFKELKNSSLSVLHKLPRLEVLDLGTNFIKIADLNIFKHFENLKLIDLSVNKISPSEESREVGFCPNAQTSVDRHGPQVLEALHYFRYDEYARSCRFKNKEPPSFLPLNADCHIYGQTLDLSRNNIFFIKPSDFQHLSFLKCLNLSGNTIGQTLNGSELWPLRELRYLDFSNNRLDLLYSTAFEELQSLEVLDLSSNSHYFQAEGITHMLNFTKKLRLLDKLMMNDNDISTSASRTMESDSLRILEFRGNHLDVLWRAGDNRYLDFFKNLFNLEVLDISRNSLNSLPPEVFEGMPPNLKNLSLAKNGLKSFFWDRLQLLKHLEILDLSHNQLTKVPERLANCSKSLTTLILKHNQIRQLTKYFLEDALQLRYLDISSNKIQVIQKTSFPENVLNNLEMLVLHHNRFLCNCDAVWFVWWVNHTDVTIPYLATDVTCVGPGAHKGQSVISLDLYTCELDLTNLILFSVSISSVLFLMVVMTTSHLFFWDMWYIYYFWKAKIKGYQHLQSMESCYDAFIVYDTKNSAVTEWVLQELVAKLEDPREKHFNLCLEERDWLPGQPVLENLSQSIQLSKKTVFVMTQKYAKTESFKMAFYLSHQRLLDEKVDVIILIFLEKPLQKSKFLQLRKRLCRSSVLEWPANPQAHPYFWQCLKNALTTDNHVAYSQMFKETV
The following applies: 80 μM compound.

In assay [2] the target is T1, recombinant mouse TLR8. The following applies: 80 μM compound.

Consider two compounds from publication PMC12062745, “The immunostimulatory activity of Epimedium flavonoids involves toll-like receptor 7/8” (Frontiers in Pharmacology, 2025).

Regarding `COc1ccc(-c2oc3c(CC=C(C)C)c(O)cc(O)c3c(=O)c2O[C@@H]2O[C@@H](C)[C@H](O)[C@@H](O)[C@H]2O)cc1` [icariin II], on recombinant mouse TLR8 [1], the Kd was found to be 10.3 µM. For the same compound, the “SPR (Biacore S200)” value on recombinant mouse TLR7 was “SPR analysis revealed that icariin II exhibited the highest binding response to TLR7”.

For `COc1ccc(-c2oc3c(CC=C(C)C)c(O[C@@H]4O[C@H](CO)[C@@H](O)[C@H](O)[C@H]4O)cc(O)c3c(=O)c2O)cc1` [icariin I], the “response value (RU)” value on recombinant mouse TLR8 [2] was 43 RU.
